Results: patent publication US11214594B2, “Antimicrobial peptide having synergistic antibacterial effect with antibiotics on multidrug resistant bacteria, and use thereof” (priority 2016, dated 2022)
Converted amounts (≈) assume the structure as drawn. Like-named read-outs stand apart in the source and are kept apart here. Where a SMILES comes first, the peptide text is derived from it.

Assays:
[1] = test system: MDRST 8009; format: cell-based, Salmonella typhimurium; conditions: agent alone
Outline: (§1)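 Broth microdilution in MH medium: strains diluted to 2×10^6 CFU were mixed with equal volumes of twofold serial peptide dilutions in MH medium. MIC was taken as the lowest peptide concentration preventing bacterial growth.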

[2] = test system: MDREC 1229; format: cell-based, Escherichia coli
Outline: (§2)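 Strains in MH medium at 2×10^6 CFU/ml were mixed with peptide diluted stepwise (2:1) from its MIC, then antibiotic dilutions in MH medium were added to give the antibiotic MIC. The reversed set-up, peptide titrated against fixed antibiotic, gave the peptide MIC.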

[3] = test system: E. coli; format: cell-based, Escherichia coli; conditions: E. coli
Outline: as §2

[4] = test system: MDRAB 12035; test: MIC of antibiotic during combined treatment with antimicrobial peptide; format: cell-based, Acinetobacter baumannii
Outline: as §2

[5] = test system: A. baumannii; test: MIC of antimicrobial peptide during combined treatment with antibiotic; format: cell-based, Acinetobacter baumannii
Outline: as §2

[6] = test system: MDRAB 12035; test: as above; format: cell-based, Acinetobacter baumannii
Outline: as §2

[7] = test system: MDRAB 12036; format: cell-based, Acinetobacter baumannii
Outline: as §1

[8] = test system: MDREC 1229; test: MIC of antibiotic during combined treatment with antimicrobial peptide; format: cell-based, Escherichia coli
Outline: as §2

[9] = test system: MDREC 1238; format: cell-based, Escherichia coli
Outline: as §1

[10] = test system: S. epidermidis; test: microbe, parasite or virus in culture; format: cell-based, Staphylococcus epidermidis
Outline: as §1

[11] = test system: MDRPA 2003; format: cell-based, Pseudomonas aeruginosa
Outline: as §1

[12] = test system: A. baumannii; test: MIC of antibiotic during combined treatment with antimicrobial peptide; format: cell-based, Acinetobacter baumannii; conditions: for Antibiotic MIC, Erythromycin / Antibiotic MIC, Linezolid / Antibiotic MIC, Vancomycin: A. baumannii
Outline: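 Checkerboard-type MIC of peptide–antibiotic mixtures in MH medium: the antibiotic was serially diluted in MH medium and added to wells, then the reversed arrangement was also tested.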

[13] = test system: P. aeruginosa; test: microbe, parasite or virus in culture; format: cell-based, Pseudomonas aeruginosa
Outline: as §1

[14] = with Erythromycin […] (Conc./MIC 1)
[15] = peptide treatment concentration 1 μg/ml
[16] = peptide treatment concentration 2 μg/ml
[17] = peptide treatment concentration 4 μg/ml
[18] = peptide treatment concentration 6 μg/ml
[19] = peptide treatment concentration 8 μg/ml
[20] = peptide treatment concentration 16 μg/ml
[21] = peptide treatment concentration 32 μg/ml
[22] = peptide treatment concentration 64 μg/ml
[23] = erythromycin 4 μg/ml (Conc./MIC 1/8)
[24] = erythromycin 8 μg/ml (Conc./MIC 1/4)
[25] = erythromycin 16 μg/ml (Conc./MIC 1/2)
[26] = erythromycin 32 μg/ml (Conc./MIC 1)
[27] = vancomycin 512 μg/ml (Conc./MIC 1/2)
[28] = vancomycin 1024 μg/ml (Conc./MIC 1)
[29] = combined with peptide at 1 μg/ml
[30] = combined with peptide at 2 μg/ml
[31] = combined with peptide at 4 μg/ml
[32] = combined with peptide at 6 μg/ml
[33] = combined with peptide at 8 μg/ml
[34] = combined with peptide at 16 μg/ml
[35] = combined with peptide at 32 μg/ml
[36] = combined with peptide at 64 μg/ml

CC[C@H](C)[C@H](NC(=O)[C@H](CCCCN)NC(=O)[C@H](Cc1c[nH]c2ccccc12)NC(=O)[C@@H](N)CCCNC(=N)N)C(=O)N[C@@H](Cc1ccccc1)C(=O)N[C@@H](CCCCN)C(=O)N[C@@H](CCCCN)C(=O)N[C@H](C(=O)N1CCC[C@H]1C(=O)N[C@@H](CCCCN)C(=O)N[C@@H](Cc1ccccc1)C(=O)N[C@@H](CC(C)C)C(=O)N[C@@H](Cc1c[nH]cn1)C(=O)N[C@@H](CO)C(=O)N[C@@H](Cc1ccccc1)C(=O)N[C@@H](CCCCN)C(=O)N[C@@H](CCCCN)C(=O)N[C@@H](Cc1ccccc1)C(N)=O)[C@@H](C)CC [PapMA-5, RWK IFK KIP KFL HSF KKF-NH2] (H-RWKIFKKIPKFLHSFKKF-NH2; N-terminus assumed)
Minimal inhibitory concentration MIC [1]: 64 µg/mL (≈ 26.9 µM)
Peptide MIC [2, 14]: 0 µg/mL
Peptide MIC ([2]; with Linezolid 512 μg/ml (Conc./MIC 1)): 0 µg/mL
Peptide MIC [3, 14]: 0 µg/mL
Peptide MIC ([3]; with Linezolid […] (Conc./MIC 1)): 0 µg/mL
Peptide MIC ([3]; with Vancomycin 1024 μg/ml (Conc./MIC 1)): 0 µg/mL
Erythromycin MIC during combined treatment with peptide [4, 15]: 32 µg/mL
Linezolid MIC during combined treatment with peptide [4, 15]: >128 µg/mL
Vancomycin MIC during combined treatment with peptide [4, 15]: >128 µg/mL
Erythromycin MIC during combined treatment with peptide [4, 16]: 32 µg/mL
Linezolid MIC during combined treatment with peptide [4, 16]: 128 µg/mL
Vancomycin MIC during combined treatment with peptide [4, 16]: >128 µg/mL
Erythromycin MIC during combined treatment with peptide [4, 17]: 16 µg/mL
Linezolid MIC during combined treatment with peptide [4, 17]: 64 µg/mL
Vancomycin MIC during combined treatment with peptide [4, 17]: 128 µg/mL
Erythromycin MIC during combined treatment with peptide [4, 18]: 2 µg/mL
Linezolid MIC during combined treatment with peptide [4, 18]: 16 µg/mL
Vancomycin MIC during combined treatment with peptide [4, 18]: 32 µg/mL
Erythromycin MIC during combined treatment with peptide [4, 19]: 1 µg/mL
Linezolid MIC during combined treatment with peptide [4, 19]: 8 µg/mL
Vancomycin MIC during combined treatment with peptide [4, 19]: 16 µg/mL
Erythromycin MIC during combined treatment with peptide [4, 20]: 0.25 µg/mL
Linezolid MIC during combined treatment with peptide [4, 20]: 8 µg/mL
Vancomycin MIC during combined treatment with peptide [4, 20]: 8 µg/mL
Erythromycin MIC during combined treatment with peptide [4, 21]: 0.125 µg/mL
Linezolid MIC during combined treatment with peptide [4, 21]: 4 µg/mL
Vancomycin MIC during combined treatment with peptide [4, 21]: 4 µg/mL
Erythromycin MIC during combined treatment with peptide [4, 22]: 0 µg/mL
Linezolid MIC during combined treatment with peptide [4, 22]: 0 µg/mL
Vancomycin MIC during combined treatment with peptide [4, 22]: 0 µg/mL
Peptide MIC during treatment with antibiotic [5, 23]: 8 µg/mL
Peptide MIC during treatment with antibiotic [5, 24]: 4 µg/mL
Peptide MIC during treatment with antibiotic [5, 25]: 2 µg/mL
Peptide MIC during treatment with antibiotic [5, 26]: 0 µg/mL
Peptide MIC during treatment with antibiotic ([5]; linezolid 32 μg/ml (Conc./MIC 1/8)): 4 µg/mL
Peptide MIC during treatment with antibiotic ([5]; linezolid 64 μg/ml (Conc./MIC 1/4)): 2 µg/mL
Peptide MIC during treatment with antibiotic ([5]; linezolid […] (Conc./MIC 1)): 0 µg/mL
Peptide MIC during treatment with antibiotic ([5]; linezolid […] (Conc./MIC 1/2)): 1 µg/mL
Peptide MIC during treatment with antibiotic [5, 27]: 0.5 µg/mL
Peptide MIC during treatment with antibiotic [5, 28]: 0 µg/mL
Peptide MIC during treatment with antibiotic ([5]; vancomycin […] (Conc./MIC 1/4)): 1 µg/mL
Peptide MIC during treatment with antibiotic ([5]; vancomycin […] (Conc./MIC 1/8)): 4 µg/mL
Peptide MIC during treatment with erythromycin [6, 23]: 4 µg/mL
Peptide MIC during treatment with erythromycin [6, 24]: 4 µg/mL
Peptide MIC during treatment with erythromycin [6, 25]: 4 µg/mL
Peptide MIC during treatment with erythromycin [6, 26]: 0 µg/mL
Peptide MIC during treatment with linezolid ([6]; linezolid 64 μg/ml (Conc./MIC 1/8)): 4 µg/mL
Peptide MIC during treatment with linezolid ([6]; linezolid 512 μg/ml (Conc./MIC 1)): 0 µg/mL
Peptide MIC during treatment with linezolid ([6]; linezolid […] (Conc./MIC 1/2)): 1 µg/mL
Peptide MIC during treatment with linezolid ([6]; linezolid […] (Conc./MIC 1/4)): 4 µg/mL
Peptide MIC during treatment with vancomycin [6, 27]: 2 µg/mL
Peptide MIC during treatment with vancomycin [6, 28]: 1 µg/mL
Peptide MIC during treatment with vancomycin ([6]; vancomycin […] (Conc./MIC 1/4)): 4 µg/mL
Peptide MIC during treatment with vancomycin ([6]; vancomycin […] (Conc./MIC 1/8)): 4 µg/mL
Minimal inhibitory concentration MIC [7]: 64 µg/mL (≈ 26.9 µM)
Antibiotic MIC, Erythromycin [8, 15]: 128 µg/mL
Antibiotic MIC, Linezolid [8, 15]: 128 µg/mL
Antibiotic MIC, Vancomycin [8, 15]: >128 µg/mL
Antibiotic MIC, Erythromycin [8, 16]: 64 µg/mL
Antibiotic MIC, Linezolid [8, 16]: 128 µg/mL
Antibiotic MIC, Vancomycin [8, 16]: >128 µg/mL
Antibiotic MIC, Erythromycin [8, 17]: 16 µg/mL
Antibiotic MIC, Linezolid [8, 17]: 64 µg/mL
Antibiotic MIC, Vancomycin [8, 17]: >128 µg/mL
Antibiotic MIC, Erythromycin [8, 18]: 8 µg/mL
Antibiotic MIC, Linezolid [8, 18]: 32 µg/mL
Antibiotic MIC, Vancomycin [8, 18]: >128 µg/mL
Antibiotic MIC, Erythromycin [8, 19]: 4 µg/mL
Antibiotic MIC, Linezolid [8, 19]: 32 µg/mL
Antibiotic MIC, Vancomycin [8, 19]: 64 µg/mL
Antibiotic MIC, Erythromycin [8, 20]: 1 µg/mL
Antibiotic MIC, Linezolid [8, 20]: 16 µg/mL
Antibiotic MIC, Vancomycin [8, 20]: 16 µg/mL
Antibiotic MIC, Erythromycin [8, 21]: 0.25 µg/mL
Antibiotic MIC, Linezolid [8, 21]: 4 µg/mL
Antibiotic MIC, Vancomycin [8, 21]: 8 µg/mL
Antibiotic MIC, Erythromycin [8, 22]: 0 µg/mL
Antibiotic MIC, Linezolid [8, 22]: 0 µg/mL
Antibiotic MIC, Vancomycin [8, 22]: 0 µg/mL
Minimal inhibitory concentration MIC [9]: 64 µg/mL (≈ 26.9 µM)
Minimal inhibitory concentration MIC [10]: >128 µg/mL
Minimal inhibitory concentration MIC [11]: 16 µg/mL (≈ 6.73 µM)
Synergistic effect of antibacterial activity with existing antibiotics compared with PapMA-1 ([12]; A. baumannii and MDRAB 12035): level similar to that of PapMA-1 peptide
Antibiotic MIC, Erythromycin [12, 29]: 32 µg/mL
Antibiotic MIC, Linezolid [12, 29]: 128 µg/mL
Antibiotic MIC, Vancomycin [12, 29]: >128 µg/mL
Antibiotic MIC, Erythromycin [12, 30]: 16 µg/mL
Antibiotic MIC, Linezolid [12, 30]: 64 µg/mL
Antibiotic MIC, Vancomycin [12, 30]: >128 µg/mL
Antibiotic MIC, Erythromycin [12, 31]: 8 µg/mL
Antibiotic MIC, Linezolid [12, 31]: 16 µg/mL
Antibiotic MIC, Vancomycin [12, 31]: 32 µg/mL
Antibiotic MIC, Erythromycin [12, 32]: 4 µg/mL
Antibiotic MIC, Linezolid [12, 32]: 8 µg/mL
Antibiotic MIC, Vancomycin [12, 32]: 16 µg/mL
Antibiotic MIC, Erythromycin [12, 33]: 0.5 µg/mL
Antibiotic MIC, Linezolid [12, 33]: 4 µg/mL
Antibiotic MIC, Vancomycin [12, 33]: 8 µg/mL
Antibiotic MIC, Erythromycin [12, 34]: 0.25 µg/mL
Antibiotic MIC, Linezolid [12, 34]: 4 µg/mL
Antibiotic MIC, Vancomycin [12, 34]: 4 µg/mL
Antibiotic MIC, Erythromycin [12, 35]: 0.125 µg/mL
Antibiotic MIC, Linezolid [12, 35]: 2 µg/mL
Antibiotic MIC, Vancomycin [12, 35]: 2 µg/mL
Antibiotic MIC, Erythromycin [12, 36]: 0 µg/mL
Antibiotic MIC, Linezolid [12, 36]: 0 µg/mL
Antibiotic MIC, Vancomycin [12, 36]: 0 µg/mL
Minimal inhibitory concentration MIC [13]: 16 µg/mL (≈ 6.73 µM)
